What was measured:
PI3Kα = PI3Kα (Homo sapiens (Human), UniProt P42336); test: In vitro PI3K AlphaScreen assay; format: biochemical; details: average if run more than once
Experimental: In Vitro PI3K AlphaScreen® Assay
The PI3K AlphaScreen® assay (PerkinElmer, Waltham, Mass.) measures the activity of a panel of four phosphoinositide 3-kinases: PI3Kα, PI3Kβ, PI3Kγ, and PI3Kδ. Each of these enzymes phosphorylates the 3′-hydroxyl group on phosphatidylinositiol (4,5)-bisphosphate (PIP2) to produce phosphatidylinositol (3,4,5)-trisphosphate (PIP3). This phosphorylation activity is measured using a GST-tagged PIP3 binding protein (Echelon Biosciences, Salt Lake City, Utah), an anti-GST-tagged Acceptor bead, and streptavidin-Donor bead. […] In the absence of this interaction, proximity of the Donor and Acceptor beads is decreased, producing a loss of luminescent signal which is inversely proportional to PI3K activity.
The enzyme reaction buffer is made using sterile water (Baxter, Deerfield, Ill.) and 50 mM Tris HCl pH 7, 14 mM MgCl2, 2 mM sodium cholate, and 100 mM NaCl. 2 mM DTT is added fresh the day of the experiment. The AlphaScreen® reaction buffer is made using sterile water and 10 mM Tris HCl pH 7.5, 150 mM NaCl, 0.10% Tween 20, and 30 mM EDTA. 1 mM DTT is added fresh the day of the experiment.
The source plates for this assay are 384-well Greiner clear polypropylene plates containing test compounds at 5 mM and diluted 1:2 over 22 points. Columns 23 and 24 contain only DMSO as these are designated for positive and negative controls. Source plates are replicated into 384-well Optiplates (PerkinElmer, Waltham, Mass.), 0.5 μL/well, to make assay-ready plates.
The different PI3K isoforms are each diluted in enzyme reaction buffer to 2× working solutions. […] Two different 2× substrate solutions are made in enzyme reaction buffer. In one solution, PI(4,5)P2 (Echelon Biosciences, Salt Lake City, Utah) is diluted to 10 μM and ATP is diluted to 20 μM. This solution is used in the assays testing PI3Kα and PI3Kβ. In a second solution, PI(4,5)P2 is diluted to 10 μM and ATP is diluted to 8 μM. This solution is used in the assays testing PI3Kγ and PI3Kδ.
The AlphaScreen® reaction solutions are made using beads from the anti-GST AlphaScreen® kit (PerkinElmer, Waltham, Mass.). Two solutions are made in Alphascreen reaction buffer to 4× working concentrations. In one solution, biotinylated-IP4 (Echelon Biosciences, Salt Lake City, Utah) is diluted to 40 nM and streptavadin-Donor Beads are diluted to 80 μg/mL. In the second solution, PIP3-binding protein (Echelon Biosciences, Salt Lake City, Utah) is diluted to 40 nM and anti-GST-Acceptor Beads are diluted to 80 μg/mL. 10 μL/well of enzyme reaction buffer is added to Column 24 of the assay ready plates in place of enzyme. This is done for plates in the PI3Kα, β, and δ assays.
Using a 384-well dispensing Multidrop (Titertek, Huntsville, Ala.), 10 μL/well of 2× enzyme (PI3Kα, β, δ) is added to Columns 1-23 of the appropriate assay ready plates (for PI3Kγ 10 μL is added to Columns 1-24). 10 μL/well of the appropriate substrate solution (the solution with 20 μM ATP for PI3Kα and β assays, and the solution with […] for PI3Kγ and δ assays) is then added to Columns 1-24 of the plates. Plates are then incubated at room temperature for 20 minutes.
In the dark, 10 μL/well of the Donor Bead solution is added to Columns 1-24 of the plates to quench the enzyme reaction. The plates are incubated at room temperature for 30 minutes. Still in the dark, 10 μL/well of the Acceptor Bead solution is also added to Columns 1-24 of the plates. The plates are then incubated in the dark for 1.5 hours. The plates are read on an Envision Multilabel Plate Reader (PerkinElmer, Waltham, Mass.) with a 680 nm excitation filter and a 520-620 nm emission filter.
Activity data for the compounds tested in the assay is provided in Table 1 under the column heading PI3Kα AlphaScreen®.

mTOR = mTOR (Homo sapiens (Human), UniProt P42345); test: In vitro mTOR Lanthascreen assay; format: biochemical; details: average if run more than once
Sequence of mTOR (P42345 1360-2549): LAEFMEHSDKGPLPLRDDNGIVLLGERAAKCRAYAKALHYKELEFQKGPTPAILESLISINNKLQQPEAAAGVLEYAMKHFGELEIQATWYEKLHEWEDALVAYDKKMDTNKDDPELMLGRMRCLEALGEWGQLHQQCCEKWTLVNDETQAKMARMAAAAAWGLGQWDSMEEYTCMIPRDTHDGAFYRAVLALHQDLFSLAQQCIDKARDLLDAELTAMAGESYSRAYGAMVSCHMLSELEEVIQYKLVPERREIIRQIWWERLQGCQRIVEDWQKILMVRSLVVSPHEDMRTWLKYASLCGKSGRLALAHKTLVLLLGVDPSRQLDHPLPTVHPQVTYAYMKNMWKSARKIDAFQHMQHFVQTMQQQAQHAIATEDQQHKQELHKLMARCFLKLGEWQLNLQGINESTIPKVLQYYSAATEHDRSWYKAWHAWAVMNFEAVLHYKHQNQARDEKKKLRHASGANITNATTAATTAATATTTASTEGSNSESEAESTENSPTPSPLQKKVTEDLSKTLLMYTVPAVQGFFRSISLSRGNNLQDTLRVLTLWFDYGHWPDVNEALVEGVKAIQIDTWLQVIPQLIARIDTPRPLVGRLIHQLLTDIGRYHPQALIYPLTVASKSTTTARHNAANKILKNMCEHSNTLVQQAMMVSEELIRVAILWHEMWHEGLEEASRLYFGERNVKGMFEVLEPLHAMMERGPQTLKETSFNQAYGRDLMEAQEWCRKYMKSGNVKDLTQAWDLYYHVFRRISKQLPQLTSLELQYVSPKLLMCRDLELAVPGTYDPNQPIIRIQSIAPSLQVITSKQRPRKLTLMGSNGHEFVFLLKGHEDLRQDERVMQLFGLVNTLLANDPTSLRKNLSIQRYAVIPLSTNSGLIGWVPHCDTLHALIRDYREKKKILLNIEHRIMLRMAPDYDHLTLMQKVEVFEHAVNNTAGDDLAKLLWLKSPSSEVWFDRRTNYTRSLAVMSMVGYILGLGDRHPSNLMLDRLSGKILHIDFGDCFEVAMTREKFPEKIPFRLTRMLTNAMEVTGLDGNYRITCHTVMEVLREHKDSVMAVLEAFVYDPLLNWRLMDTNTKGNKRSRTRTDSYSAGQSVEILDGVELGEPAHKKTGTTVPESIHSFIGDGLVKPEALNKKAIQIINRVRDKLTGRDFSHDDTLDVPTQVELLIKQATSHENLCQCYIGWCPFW
Description: The Invitrogen (Carlsbad, Calif.) mammalian target of rapamycin (mTOR) Lanthascreen assay can be used to quantitate mTOR kinase activity in an in vitro setting. Active mTOR phosphorylates eukaryotic translation initiation factor 4E binding protein 1 (4E-BP1) on residue threonine 46. This phosphorylation event can be detected with a phospho-specific terbium (Tb) labeled Ab, in turn bringing the Tb label in close proximity to the GFP tagged 4E-BP 1 and allowing for time-resolved fluorescence resonance energy transfer (TR-FRET), which correlates 4E-BP1 phosphorylation levels with mTOR kinase activity.
Enzyme reaction buffer can be prepared in deionized water containing 50 mM HEPES (pH 7.5), 0.01% Polysorbate 20, 1 mM EGTA, and 10 mM MnCl2.
Dilutions of the compound to be tested can be prepared in 96-well polypropylene plates (Fisher Scientific, Waltham, Mass.). One row represents a 10-point dose of compound diluted 1:3 in enzyme reaction buffer and 20% dimethyl sulfoxide (DMSO). The top concentration for all compounds is 36 μM. Wells 6 and 12 can serve as the no compound (DMSO only) and high compound controls.
An mTOR substrate solution can prepared in enzyme reaction buffer containing 1600 nM green fluorescent protein tagged eukaryotic translation initiation factor 4E binding protein 1 (GFP-4E-BP1) (Invitrogen, Carlsbad, Calif.) and 28 uM adenosine triphosphate (ATP) (Calbiochem, Gibbstown, N.J.).
mTOR enzyme (Invitrogen, Carlsbad, Calif.) can be diluted in enzyme reaction buffer to a working concentration of 100 ng/mL.
The enzyme assay can be run in 384 well low volume assay plates (Corning, Corning, N.Y.). 2.5 uL of substrate solution containing GFP-4E-BP1 and ATP can be added to appropriate wells in the assay plate followed by 2.5 μL of compound dilutions. 5 μL of appropriately diluted mTOR enzyme can be added and the reaction allowed to proceed for 1 hour at room temperature. Final reagent concentrations in the enzyme assay are 50 ng/mL mTOR, 400 nM GFP-4E-BP1, and 7 μM ATP.
The enzyme assay can be terminated upon the addition of 10 μL of 20 mM EDTA and 4 nM Tb-labeled anti-phospho-4E-BP1 [T46] antibody (Invitrogen, Carlsbad, Calif.). The assay plate can then be incubated at room temperature for 1 hour and results read on a Tecan Safire II plate reader (Tecan, Männedorf, Switzerland).

Sequence of PI3Kα (P42336 whole entry): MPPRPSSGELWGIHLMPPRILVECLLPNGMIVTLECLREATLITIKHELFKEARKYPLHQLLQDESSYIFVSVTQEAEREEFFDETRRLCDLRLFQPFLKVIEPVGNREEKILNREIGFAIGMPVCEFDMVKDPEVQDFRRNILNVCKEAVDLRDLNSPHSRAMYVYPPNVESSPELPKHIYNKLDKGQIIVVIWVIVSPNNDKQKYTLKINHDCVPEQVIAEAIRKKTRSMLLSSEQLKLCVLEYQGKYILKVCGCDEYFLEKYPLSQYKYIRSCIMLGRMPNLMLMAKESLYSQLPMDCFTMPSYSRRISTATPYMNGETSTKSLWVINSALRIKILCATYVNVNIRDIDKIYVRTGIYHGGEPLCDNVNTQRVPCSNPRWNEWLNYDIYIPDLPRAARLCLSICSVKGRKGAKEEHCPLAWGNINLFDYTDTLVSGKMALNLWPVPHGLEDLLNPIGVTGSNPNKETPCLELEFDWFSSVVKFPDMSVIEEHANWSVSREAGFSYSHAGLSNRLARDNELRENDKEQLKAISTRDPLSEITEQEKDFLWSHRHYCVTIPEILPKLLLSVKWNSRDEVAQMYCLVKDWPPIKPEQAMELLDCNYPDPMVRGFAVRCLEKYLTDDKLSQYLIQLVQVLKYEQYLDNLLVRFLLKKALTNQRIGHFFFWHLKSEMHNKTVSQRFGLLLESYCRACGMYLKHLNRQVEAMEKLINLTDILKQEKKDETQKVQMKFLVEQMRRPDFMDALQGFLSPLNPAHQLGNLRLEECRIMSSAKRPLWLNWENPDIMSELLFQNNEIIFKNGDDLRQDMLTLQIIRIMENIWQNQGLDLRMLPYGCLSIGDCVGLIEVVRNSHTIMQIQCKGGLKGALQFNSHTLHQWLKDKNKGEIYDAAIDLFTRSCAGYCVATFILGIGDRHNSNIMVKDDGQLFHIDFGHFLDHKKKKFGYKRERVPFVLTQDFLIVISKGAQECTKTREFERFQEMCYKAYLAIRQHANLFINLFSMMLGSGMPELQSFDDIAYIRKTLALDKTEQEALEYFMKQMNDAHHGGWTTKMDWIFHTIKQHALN
Sequence of PI3Kα (P27986 whole entry partner): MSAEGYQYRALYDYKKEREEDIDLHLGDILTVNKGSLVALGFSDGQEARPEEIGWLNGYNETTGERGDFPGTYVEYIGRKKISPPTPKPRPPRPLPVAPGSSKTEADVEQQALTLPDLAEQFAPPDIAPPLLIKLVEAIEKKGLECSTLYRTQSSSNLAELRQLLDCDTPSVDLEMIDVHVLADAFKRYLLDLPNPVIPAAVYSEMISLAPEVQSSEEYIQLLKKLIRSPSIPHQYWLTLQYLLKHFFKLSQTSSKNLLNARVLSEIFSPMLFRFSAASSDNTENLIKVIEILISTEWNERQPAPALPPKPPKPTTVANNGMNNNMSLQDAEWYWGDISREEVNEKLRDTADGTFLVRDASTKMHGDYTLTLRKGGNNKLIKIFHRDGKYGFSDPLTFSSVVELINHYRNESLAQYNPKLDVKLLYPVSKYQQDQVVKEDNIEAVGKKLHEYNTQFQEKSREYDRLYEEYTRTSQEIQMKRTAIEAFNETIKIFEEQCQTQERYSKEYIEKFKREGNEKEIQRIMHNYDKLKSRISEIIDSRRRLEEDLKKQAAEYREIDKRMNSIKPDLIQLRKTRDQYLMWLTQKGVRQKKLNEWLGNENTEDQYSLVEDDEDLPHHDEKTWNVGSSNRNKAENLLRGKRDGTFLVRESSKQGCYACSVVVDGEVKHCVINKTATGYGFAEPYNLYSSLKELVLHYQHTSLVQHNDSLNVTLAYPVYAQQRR

O=S(=O)(Nc1cc(-c2cnc3ccc(N4CCOCC4)cn23)cnc1Cl)c1ccc(F)cc1 [Example 9, N-(2-Chloro-5-(6-(4-morpholinyl)imidazo[1,2-a]pyridin-3-yl)-3-pyridinyl)-4-fluorobenzenesulfonamide] was tested, and the Ki (PI3Kα) was 0.004 µM and the IC50 (mTOR) was 0.364 µM.
O=S(=O)(Nc1cc(-c2cnc3ccc(Cl)nn23)cnc1Cl)c1ccc(F)cc1 [Example 25, N-(2-Chloro-5-(6-chloroimidazo[1,2-b]pyridazin-3-yl)pyridin-3-yl)-4-fluorobenzenesulfonamide] gave a Ki (PI3Kα) of 0.022 µM and an IC50 (mTOR) of 0.102 µM.
COc1cc(-c2cnc3ccc(-c4ccncc4)cn23)cnc1OC [Example 12, 3-(5,6-Dimethoxy-3-pyridinyl)-6-(4-pyridinyl)imidazo[1,2-a]pyridine] was tested, and the Ki (PI3Kα) was 0.626 µM and the IC50 (mTOR) was 3.75 µM.
Compound CN(C)S(=O)(=O)Nc1cc(-c2cnc3ccc(-c4ccncc4)cn23)cnc1Cl [Example 18, N-(2-Chloro-5-(6-(pyridin-4-yl)imidazo[1,2-a]pyridin-3-yl)pyridin-3-yl)dimethylaminosulfonamide] has a Ki (PI3Kα) of 0.001 µM and an IC50 (mTOR) of 0.015 µM.
Work on O=S(=O)(Nc1cc(-c2cnc3ccccn23)cnc1Cl)c1ccc(F)cc1 [Example 3, N-(2-Chloro-5-imidazo[1,2-a]pyridin-3-yl-3-pyridinyl)-4-fluorobenzenesulfonamide] yielded a Ki (PI3Kα) of 0.028 µM and an IC50 (mTOR) of 0.155 µM.
With CN(C)S(=O)(=O)Nc1cc(-c2cnc3cc(-c4ccncc4)ccn23)cnc1Cl [Example 21, N′-(2-Chloro-5-(7-(4-pyridinyl)imidazo[1,2-a]pyridin-3-yl)-3-pyridinyl)-N,N-dimethylsulfamide] the Ki (PI3Kα) was 0.015 µM and the IC50 (mTOR) was 0.258 µM.
For COc1cc(-c2cnc3ccc(N4CCOCC4)cn23)cnc1OC [Example 16, 3-(5,6-Dimethoxy-3-pyridinyl)-6-(4-morpholinyl)imidazo[1,2-a]pyridine], the Ki (PI3Kα) was 1.08 µM and the IC50 (mTOR) was 4.52 µM.
O=S(=O)(Nc1cc(-c2cnc3ccc(Br)cn23)cnc1Cl)c1ccc(F)cc1 [Example 6, N-(5-(6-Bromoimidazo[1,2-a]pyridin-3-yl)-2-chloro-3-pyridinyl)-4-fluorobenzenesulfonamide] was tested, and the Ki (PI3Kα) was 0.006 µM and the IC50 (mTOR) was 0.039 µM.
In the case of COc1cc(-c2cnc3ccccn23)cnc1OC [Example 10, 3-(5,6-Dimethoxy-3-pyridinyl)imidazo[1,2-a]pyridine], the Ki (PI3Kα) is reported as > 1.5 µM and the IC50 (mTOR) is reported as > 50 µM.
Compound CN(C)S(=O)(=O)Nc1cc(-c2cnc3ccc(-c4ccnc(C(F)(F)F)c4)cn23)cnc1Cl [Example 19, N-(2-Chloro-5-(6-(2-(trifluoromethyl)pyridin-4-yl)imidazo[1,2-a]pyridin-3-yl)pyridin-3-yl)dimethylaminosulfonamid] has a Ki (PI3Kα) of 0.001 µM and an IC50 (mTOR) of 0.015 µM.
O=S(=O)(Nc1cc(-c2cnc3ccc(-c4cccnc4)cn23)cnc1Cl)c1ccc(F)cc1 [Example 8, N-(2-Chloro-5-(6-(3-pyridinyl)imidazo[1,2-a]pyridin-3-yl)-3-pyridinyl)-4-fluorobenzenesulfonamide] gave a Ki (PI3Kα) of 0.001 µM and an IC50 (mTOR) of 0.032 µM.
With Cc1cc2ncc(-c3cnc(Cl)c(NS(=O)(=O)N(C)C)c3)n2cc1-c1ccncc1 [Example 23, N′-(2-Chloro-5-(7-methyl-6-(4-pyridinyl)imidazo[1,2-a]pyridin-3-yl)-3-pyridinyl)-N,N-dimethylsulfamide] the Ki (PI3Kα) was 0.004 µM and the IC50 (mTOR) was 0.018 µM.
With COc1cc(-c2cnc3ccc(Br)cn23)cnc1OC [Example 11, 6-Bromo-3-(5,6-dimethoxy-3-pyridinyl)imidazo[1,2-a]pyridine] the Ki (PI3Kα) was 0.779 µM and the IC50 (mTOR) was 2.17 µM.
CS(=O)(=O)Nc1cc(-c2cnc3cc(-c4cccnc4)ccn23)cnc1Cl [Example 20, N-(2-Chloro-5-(7-(pyridin-3-yl)imidazo[1,2-a]pyridin-3-yl)pyridin-3-yl)methanesulfonamide] showed a Ki (PI3Kα) of 0.005 µM and an IC50 (mTOR) of 0.032 µM.
In the case of O=S(=O)(Nc1cc(-c2cnc3ccc(-c4ccncc4)cn23)cnc1Cl)c1ccc(F)cc1 [Example 7, N-(2-Chloro-5-(6-(4-pyridinyl)imidazo[1,2-a]pyridin-3-yl)-3-pyridinyl)-4-fluorobenzenesulfonamide], the Ki (PI3Kα) is reported as 0.002 µM and the IC50 (mTOR) is reported as 0.036 µM.
Work on Cc1nc2ccc(Br)cn2c1-c1cnc(Cl)c(NS(=O)(=O)c2ccc(F)cc2)c1 [Example 5, N-(5-(6-Bromo-2-methylimidazo[1,2-a]pyridin-3-yl)-2-chloro-3-pyridinyl)-4-fluorobenzenesulfonamide] yielded a Ki (PI3Kα) of 0.02 µM and an IC50 (mTOR) of 0.848 µM.
For COc1cc(-c2cnc3ccc(N4CCOC4=O)cn23)cnc1OC [Example 13, 3-(3-(5,6-Dimethoxy-3-pyridinyl)imidazo[1,2-a]pyridin-6-yl)-1,3-oxazolidin-2-one], the Ki (PI3Kα) was > 1.5 µM and the IC50 (mTOR) was 9.66 µM.
Cc1ccn2c(-c3cnc(Cl)c(NS(=O)(=O)c4ccc(F)cc4)c3)cnc2c1 [Example 4, N-(2-Chloro-5-(7-methylimidazo[1,2-a]pyridin-3-yl)-3-pyridinyl)-4-fluorobenzenesulfonamide] was tested, and the Ki (PI3Kα) was 0.019 µM.
Compound CN(C)S(=O)(=O)Nc1cc(-c2cnc3cc(-c4cccnc4)ccn23)cnc1Cl [Example 22, N′-(2-Chloro-5-(7-(3-pyridinyl)imidazo[1,2-a]pyridin-3-yl)-3-pyridinyl)-N,N-dimethylsulfamide] has a Ki (PI3Kα) of 0.021 µM and an IC50 (mTOR) of 0.157 µM.

— patent US8729074B2, “Inhibitors of PI3 kinase” (Amgen Inc., priority 2009, dated 2014)
